Measurements as given in US9221814B2, “Heterocyclic guanidine F1F0-atpase inhibitors and therapeutic uses thereof” (Lycera Corporation, priority 2012, dated 2015).
Where two headings read alike, the source gives them in different places.

Legend:
F1F0-ATPase = molecular target: T1, F1F0-ATPase (Bos taurus, UniProt P13621); assay: Inhibition of F1F0-ATPase activity in synthesizing ATP (ATP synthesis inhibition); assay type: biochemical; details: detection limit IC50=16 μM, read-out: ATP Syn IC50
T1 construct: from tissue
Experimental: (§1) Exemplary compounds described in above Examples were tested for activity against F1F0-ATPase by measuring the ability of the compounds to inhibit ATP synthesis. In addition, the compounds were assessed for cytotoxicity in Ramos cells. Inhibition of F1F0-ATPase activity in synthesizing ATP and cytotoxicity in Ramos cells were measured according to the procedures described in K. M. Johnson et al. Chemistry & Biology 2005, 12, 485-496.

Ramos cells = assay: Cytotoxicity in Ramos cells; assay type: cell-based; details: detection limit EC50=16 μM, read-out: Ramos Cell EC50
Experimental: as §1

SMILES: COc1cccc(CN/C(=N/C(=O)c2cc(C(C)(C)C)nn2C)Nc2cc(-c3ccc(F)cc3)n[nH]2)c1 [Compound A-46]
- IC50 (F1F0-ATPase): < 5 µM
- EC50 (Ramos cells): < 5 µM

SMILES: Cc1nnsc1C(=O)/N=C(\Nc1cc(-c2ccc(F)cc2)n[nH]1)NC(C)(C)C [Compound A-47]
- IC50 (F1F0-ATPase): 5 to 16 µM
- EC50 (Ramos cells): < 5 µM

SMILES: Cc1cc(C(=O)/N=C(\Nc2cc(-c3ccc(F)cc3)n[nH]2)NC(C)C)no1 [Compound A-48]
- IC50 (F1F0-ATPase): > 16 µM
- EC50 (Ramos cells): > 16 µM

SMILES: CC(C)N/C(=N/C(=O)c1cc(C(C)(C)C)nn1C)Nc1cc(-c2ccc(F)cc2)n[nH]1 [Compound A-49]
- IC50 (F1F0-ATPase): < 5 µM
- EC50 (Ramos cells): < 5 µM

SMILES: COC[C@H](C)N/C(=N/C(=O)c1cc(C(C)(C)C)nn1C)Nc1cc(-c2ccc(F)cc2)n[nH]1 [Compound A-50]
- IC50 (F1F0-ATPase): < 5 µM
- EC50 (Ramos cells): < 5 µM

SMILES: Cn1nc(C(C)(C)C)cc1C(=O)/N=C(\Nc1cc(-c2ccc(F)cc2)n[nH]1)NC1CCCC1 [Compound A-51]
- IC50 (F1F0-ATPase): < 5 µM
- EC50 (Ramos cells): < 5 µM

SMILES: COC[C@H](C)N/C(=N/C(=O)c1cc(C)on1)Nc1cc(-c2ccc(F)cc2)n[nH]1 [Compound A-52]
- IC50 (F1F0-ATPase): > 16 µM
- EC50 (Ramos cells): > 16 µM

SMILES: CCn1nc(C)cc1C(=O)/N=C(\Nc1cc(-c2ccc(F)cc2)n[nH]1)NC(C)(C)C [Compound A-53]
- IC50 (F1F0-ATPase): < 5 µM
- EC50 (Ramos cells): < 5 µM

SMILES: CCn1nc(C)cc1C(=O)/N=C(\Nc1cc(-c2ccc(F)cc2)n[nH]1)NC(C)C [Compound A-54]
- IC50 (F1F0-ATPase): < 5 µM
- EC50 (Ramos cells): < 5 µM

SMILES: CCn1nc(C)cc1C(=O)N=C(Nc1cc(-c2ccc(F)cc2)n[nH]1)NC(C)COC (centres unmarked) [Compound A-55]
- IC50 (F1F0-ATPase): 5 to 16 µM
- EC50 (Ramos cells): 5 to 16 µM

SMILES: CC(C)n1ccc(C(=O)/N=C(\Nc2cc(-c3ccc(F)cc3)n[nH]2)NC(C)(C)C)n1 [Compound A-56]
- IC50 (F1F0-ATPase): < 5 µM
- EC50 (Ramos cells): 5 to 16 µM

SMILES: CC(C)N/C(=N/C(=O)c1ccn(C(C)C)n1)Nc1cc(-c2ccc(F)cc2)n[nH]1 [Compound A-57]
- IC50 (F1F0-ATPase): 5 to 16 µM
- EC50 (Ramos cells): 5 to 16 µM

SMILES: CCCn1ccc(C(=O)/N=C(\Nc2cc(-c3ccc(F)cc3)n[nH]2)NC(C)(C)C)n1 [Compound A-58]
- IC50 (F1F0-ATPase): < 5 µM
- EC50 (Ramos cells): < 5 µM

SMILES: CCCn1ccc(C(=O)N=C(Nc2cc(-c3ccc(F)cc3)n[nH]2)NC(C)C)n1 [Compound A-59]
- IC50 (F1F0-ATPase): 5 to 16 µM
- EC50 (Ramos cells; Homo sapiens): 5 to 16 µM

SMILES: CCn1ccc(C(=O)/N=C(\Nc2cc(-c3ccc(F)cc3)n[nH]2)NC(C)(C)C)n1 [Compound A-60]
- IC50 (F1F0-ATPase): < 5 µM
- EC50 (Ramos cells): 5 to 16 µM

SMILES: CC(C)c1cc(C(=O)/N=C(\Nc2cc(-c3ccc(F)cc3)n[nH]2)NC(C)(C)C)on1 [Compound A-61]
- IC50 (F1F0-ATPase): < 5 µM
- EC50 (Ramos cells): < 5 µM

SMILES: CCn1ccc(C(=O)/N=C(\Nc2cc(-c3ccc(F)cc3)n[nH]2)NC(C)C)n1 [Compound A-62]
- IC50 (F1F0-ATPase): > 16 µM
- EC50 (Ramos cells): > 16 µM

SMILES: CC(C)N/C(=N/C(=O)c1cc(C(C)C)no1)Nc1cc(-c2ccc(F)cc2)n[nH]1 [Compound A-63]
- IC50 (F1F0-ATPase): < 5 µM
- EC50 (Ramos cells): 5 to 16 µM

SMILES: Cc1cc(C(=O)N=C(Nc2cc(-c3ccc(Cl)cc3)n[nH]2)NC(C)C)n(C)n1 [Compound A-64]
- IC50 (F1F0-ATPase): < 5 µM
- EC50 (Ramos cells; Homo sapiens): 5 to 16 µM

SMILES: Cc1cc(C(=O)/N=C(\Nc2cc(-c3ccc(Cl)cc3)n[nH]2)NC(C)(C)C)n(C)n1 [Compound A-65]
- IC50 (F1F0-ATPase): < 5 µM
- EC50 (Ramos cells): 5 to 16 µM

SMILES: Cc1cc(C(=O)/N=C(/NCC(C)C)Nc2cc(-c3ccc(Cl)cc3)n[nH]2)n(C)n1 [Compound A-66]
- IC50 (F1F0-ATPase): < 5 µM
- EC50 (Ramos cells): < 5 µM

SMILES: COCC(C)NC(=NC(=O)c1cc(C)nn1C)Nc1cc(-c2ccc(Cl)cc2)n[nH]1 (centres unmarked) [Compound A-67]
- IC50 (F1F0-ATPase): < 5 µM
- EC50 (Ramos cells; Homo sapiens): 5 to 16 µM

SMILES: Cc1oncc1C(=O)/N=C(\Nc1cc(-c2ccc(Cl)cc2)n[nH]1)NC(C)(C)C [Compound A-68]
- IC50 (F1F0-ATPase): < 5 µM
- EC50 (Ramos cells): < 5 µM

SMILES: Cc1oncc1C(=O)/N=C(/NCC(C)C)Nc1cc(-c2ccc(Cl)cc2)n[nH]1 [Compound A-69]
- IC50 (F1F0-ATPase): > 16 µM
- EC50 (Ramos cells): > 16 µM

SMILES: Cc1oncc1C(=O)N=C(Nc1cc(-c2ccc(Cl)cc2)n[nH]1)NC(C)C [Compound A-70]
- IC50 (F1F0-ATPase): > 16 µM
- EC50 (Ramos cells; Homo sapiens): > 16 µM

SMILES: CC(C)N/C(=N/C(=O)c1cc(C(C)(C)C)nn1C)Nc1cc(-c2ccc(Cl)cc2)n[nH]1 [Compound A-71]
- IC50 (F1F0-ATPase): 5 to 16 µM
- EC50 (Ramos cells): < 5 µM

SMILES: Cn1nc(C(C)(C)C)cc1C(=O)/N=C(\Nc1cc(-c2ccc(Cl)cc2)n[nH]1)NC(C)(C)C [Compound A-72]
- IC50 (F1F0-ATPase): < 5 µM
- EC50 (Ramos cells): < 5 µM

SMILES: CC(C)CN/C(=N/C(=O)c1cc(C(C)(C)C)nn1C)Nc1cc(-c2ccc(Cl)cc2)n[nH]1 [Compound A-73]
- IC50 (F1F0-ATPase): < 5 µM
- EC50 (Ramos cells): < 5 µM

SMILES: Cn1nc(C(C)(C)C)cc1C(=O)/N=C(\Nc1cc(-c2ccc(Cl)cc2)n[nH]1)NC1CCCC1 [Compound A-74]
- IC50 (F1F0-ATPase): < 5 µM
- EC50 (Ramos cells): < 5 µM

SMILES: COCC(C)NC(=NC(=O)c1cnoc1C)Nc1cc(-c2ccc(Cl)cc2)n[nH]1 (centres unmarked) [Compound A-75]
- IC50 (F1F0-ATPase): 5 to 16 µM
- EC50 (Ramos cells; Homo sapiens): > 16 µM

SMILES: COC[C@H](C)N/C(=N/C(=O)c1cc(C(C)(C)C)nn1C)Nc1cc(-c2ccc(Cl)cc2)n[nH]1 [Compound A-76]
- IC50 (F1F0-ATPase): < 5 µM
- EC50 (Ramos cells): < 5 µM

SMILES: Cc1oncc1C(=O)/N=C(\Nc1cc(-c2cc(F)cc(F)c2)n[nH]1)NC(C)C [Compound A-77]
- IC50 (F1F0-ATPase): 5 to 16 µM
- EC50 (Ramos cells): > 16 µM

SMILES: Cc1oncc1C(=O)/N=C(\Nc1cc(-c2cc(F)cc(F)c2)n[nH]1)NC1CCCC1 [Compound A-78]
- IC50 (F1F0-ATPase): < 5 µM
- EC50 (Ramos cells): > 16 µM

SMILES: Cc1oncc1C(=O)/N=C(/NCC(C)C)Nc1cc(-c2cc(F)cc(F)c2)n[nH]1 [Compound A-79]
- IC50 (F1F0-ATPase): > 16 µM
- EC50 (Ramos cells): > 16 µM

SMILES: COC[C@H](C)N/C(=N/C(=O)c1cnoc1C)Nc1cc(-c2cc(F)cc(F)c2)[nH]n1 [Compound A-80]
- IC50 (F1F0-ATPase): 5 to 16 µM
- EC50 (Ramos cells): > 16 µM

SMILES: Cc1cc(C(=O)N=C(Nc2cc(-c3cc(F)cc(F)c3)n[nH]2)NC(C)C)n(C)n1 [Compound A-81]
- IC50 (F1F0-ATPase): < 5 µM
- EC50 (Ramos cells; Homo sapiens): 5 to 16 µM

SMILES: Cc1cc(C(=O)/N=C(\Nc2cc(-c3cc(F)cc(F)c3)n[nH]2)NC2CCCC2)n(C)n1 [Compound A-82]
- IC50 (F1F0-ATPase): < 5 µM
- EC50 (Ramos cells): 5 to 16 µM

SMILES: Cc1cc(C(=O)/N=C(/NCC(C)C)Nc2cc(-c3cc(F)cc(F)c3)n[nH]2)n(C)n1 [Compound A-83]
- IC50 (F1F0-ATPase): < 5 µM
- EC50 (Ramos cells): 5 to 16 µM

SMILES: COC[C@H](C)N/C(=N/C(=O)c1cc(C)nn1C)Nc1cc(-c2cc(F)cc(F)c2)[nH]n1 [Compound A-84]
- IC50 (F1F0-ATPase): 5 to 16 µM
- EC50 (Ramos cells): > 16 µM

SMILES: Cc1oncc1C(=O)/N=C(/NCc1ccc(F)cc1Cl)Nc1cc(-c2ccc(Cl)cc2)n[nH]1 [Compound A-85]
- IC50 (F1F0-ATPase): 5 to 16 µM
- EC50 (Ramos cells): 5 to 16 µM

SMILES: Cc1cc(C(=O)/N=C(/NCc2ccc(F)cc2Cl)Nc2cc(-c3ccc(F)cc3)n[nH]2)n(C)n1 [Compound A-86]
- IC50 (F1F0-ATPase): < 5 µM
- EC50 (Ramos cells): 5 to 16 µM

SMILES: Cc1oncc1C(=O)/N=C(\Nc1cc(-c2cc(F)cc(F)c2)n[nH]1)NC(C)(C)C [Compound A-87]
- IC50 (F1F0-ATPase): < 5 µM
- EC50 (Ramos cells): < 5 µM

SMILES: CCC(C)N/C(=N/C(=O)c1cnoc1C)Nc1cc(-c2cc(F)cc(F)c2)n[nH]1 (centres unmarked) [Compound A-88]
- IC50 (F1F0-ATPase): < 5 µM
- EC50 (Ramos cells): 5 to 16 µM

SMILES: Cc1oncc1C(=O)/N=C(\Nc1cc(-c2ccc(Cl)cc2)[nH]n1)NC1CCCC1 [Compound A-89]
- IC50 (F1F0-ATPase): > 16 µM
- EC50 (Ramos cells): > 16 µM

SMILES: CCC(C)N/C(=N/C(=O)c1cnoc1C)Nc1cc(-c2ccc(Cl)cc2)n[nH]1 (centres unmarked) [Compound A-90]
- IC50 (F1F0-ATPase): > 16 µM
- EC50 (Ramos cells): > 16 µM

SMILES: Cc1ccc(-c2cc(N/C(=N\C(=O)c3cnoc3C)NC3CCCC3)n[nH]2)cc1F [Compound A-91]
- IC50 (F1F0-ATPase): < 5 µM
- EC50 (Ramos cells): < 5 µM

SMILES: Cc1ccc(-c2cc(N/C(=N\C(=O)c3cnoc3C)NC3(C)CCCC3)[nH]n2)cc1F [Compound A-92]
- IC50 (F1F0-ATPase): < 5 µM
- EC50 (Ramos cells): < 5 µM

SMILES: Cc1ccc(-c2cc(N/C(=N\C(=O)c3cnoc3C)NC(C)(C)C)[nH]n2)cc1F [Compound A-93]
- IC50 (F1F0-ATPase): < 5 µM
- EC50 (Ramos cells): < 5 µM

SMILES: Cc1ccc(-c2cc(N/C(=N\C(=O)c3cnoc3C)NC3CCC3)[nH]n2)cc1F [Compound A-94]
- IC50 (F1F0-ATPase): < 5 µM
- EC50 (Ramos cells): 5 to 16 µM

SMILES: Cc1oncc1C(=O)/N=C(\Nc1cc(-c2cc(F)cc(F)c2)n[nH]1)NC1(C)CCCC1 [Compound A-95]
- IC50 (F1F0-ATPase): < 5 µM
- EC50 (Ramos cells): < 5 µM

SMILES: Cc1oncc1C(=O)/N=C(\Nc1cc(-c2cc(F)cc(Cl)c2)n[nH]1)NC(C)(C)C [Compound A-96]
- IC50 (F1F0-ATPase): < 5 µM
- EC50 (Ramos cells): < 5 µM

SMILES: Cc1oncc1C(=O)N=C(Nc1cc(-c2cc(F)cc(Cl)c2)n[nH]1)NC1CCCC1 [Compound A-97]
- IC50 (F1F0-ATPase): < 5 µM
- EC50 (Ramos cells; Homo sapiens): < 5 µM
